Measurements: patent US9315496B2, “Benzopyrone derivative and use thereof” (HUAZHONG UNIVERSITY OF SCIENCE & TECHNOLOGY, priority 2011, dated 2016)
Like-named read-outs stand apart in the source and are kept apart here.

Columns and labels:
5-HT1A receptor = biological target: T1, 5-HT1A receptor (Rattus norvegicus, UniProt P19327); assay: 5HT1A receptor binding assay (3H-8-OH-DPAT, rat brain striatum membrane); settings: for IC50: cells marked ^a, 3H-8-OH-DPAT, rat brain striatum membrane; for affinity for 5-HT1A receptor (in words): in vitro receptor binding assay
T1 sequence (P19327 1-422): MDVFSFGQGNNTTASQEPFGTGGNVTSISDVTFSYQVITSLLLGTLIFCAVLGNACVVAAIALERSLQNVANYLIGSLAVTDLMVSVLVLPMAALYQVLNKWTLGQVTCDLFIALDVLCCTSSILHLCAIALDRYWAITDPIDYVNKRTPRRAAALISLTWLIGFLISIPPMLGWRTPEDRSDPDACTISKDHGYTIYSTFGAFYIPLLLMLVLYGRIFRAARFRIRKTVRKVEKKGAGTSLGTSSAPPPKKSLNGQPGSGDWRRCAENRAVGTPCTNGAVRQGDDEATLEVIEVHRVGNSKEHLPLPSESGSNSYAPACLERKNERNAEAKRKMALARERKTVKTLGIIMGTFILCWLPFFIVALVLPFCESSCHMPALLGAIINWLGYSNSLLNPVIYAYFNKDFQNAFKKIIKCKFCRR
Description: Incubation at 37° C. was conducted for 10 min, the weight of the tubes were adjusted using a balance after incubation. […] Centrifugation was conducted and repeated 3 times.

5-HT2A receptor = 5-HT2A receptor (Rattus norvegicus, UniProt P14842); assay: 5HT2A receptor binding assay ([3H]-Ketanserin, rat brain striatum membrane); settings: for IC50: cells marked ^a, [3H]-Ketanserin, rat brain striatum membrane
D3 receptor = biological target: T2, D3 receptor (Homo sapiens, UniProt P35462); assay: D3 receptor assay ([3H]-Spiperone, HEK-293 cells); format: binding; settings: for inhibition at 10 µM: final concentration 10 μmol/L, [3H]-Spiperone, HEK-293 cells; for affinity for D3 receptor (in words): in vitro receptor binding assay
T2 construct: expressed in transfected cells; host or cells: HEK-293
Description: After the cells were centrifuged at 1000 rpm for 5 min, the supernatant was discarded, and the cell pellet was collected and stored in a −20° C. fridge for reservation. It was re-suspended with Tris-Cl (pH 7.4) in the assay.
Tris was divided into aliquots by Genetimes Technology Inc.
Competitive binding test for receptors: 20 μl of each of the test compounds and 20 μl of the radioactive ligand together with 160 μl of the receptor proteins were added into the reaction tubes, and the final concentrations of the test compound and the positive drug were all 10 μmol/L. After 50 min of incubation in 30° C. water bath, the tubes were immediately moved to ice bath to terminate the reactions. GF/C glass fiber filter papers were used for rapid sucking filtration on a Millipore cell sample collector, elution buffer (50 mM Tris-HCl, PH 7.4) was applied for 3 ml×3 times, and microwave was applied for 4-5 min for drying. The filter papers were moved into 0.5 ml centrifuge tubes, and 500 μl of lipid-soluble scintillation solution was added. The tubes were allowed to stand still for over 30 min in dark, and the intensities of radioactivity were measured by a counter.

5-HT2C receptor = 5-HT2C receptor (Rattus norvegicus, UniProt P08909); assay: 5HT2C receptor binding assay ([3H]-mesulergine, rat brain striatum membrane); settings: for inhibition at 10 µM: read-out: 5HT2C inhibition %
mice of Kunming breed = assay: MK-801 induced high activity in mice; format: in vivo; settings: for ED50: Mus musculus, 1.5 h, po, MK-801 0.1 mg/kg ip, spontaneous activity in 90 min
Description: Healthy mice of Kunming breed (with half male and half female, (20±2)g) were provided by Qinglongshan Animal Cultivation Center, Nanjing.
Subsequently, the spontaneous activities of the mice of each group in 90 min were measured.

KM mice = assay: Apomorphine induced clambering assay of mice; format: in vivo; settings: for ED50: Mus musculus, po, apomorphine 1 mg/kg sc
Description: Healthy KM mice (male, with body weight of 18-22 g) were provided by Qinglongshan Animal Cultivation Center, Nanjing.
Test positive drugs: haloperidol, clozapine, risperidone, olanzapine, aripiprazole, ziprasidone, quetiapine.
Apomorphine provided by Sigma Company was dissolved in 0.9% NaCl (containing 0.1% vitamin C) before use, and was freshly formulated before use.
Corresponding solvent double-distilled water was administered intragastrically to the negative control group and the model group, corresponding positive drugs were administered intragastrically to the positive drug groups (a small amount of acetic acid was first added and then double-distilled water was added when dissolving), and corresponding dosages of compounds were administered intragastrically to the compound groups for each dosage, with the volume for intragastric administration as 0.1 ml/10 g. 1 hour after the intragastric administration, apomorphine was subcutaneously injected (1 mg/kg), with the volume as 0.1 ml/10 g. After the injection of apomorphine, the mice were immediately put into the clambering cages. After 5 min of adaptation, the behaviors of the mice at 10-11, 20-21, and 30-31 min after the injection of apomorphine were observed and scored. Scoring criteria: 4 paws on the floor was scored as 0; 2 forepaws on the cage was scored as 1; and 4 paws on the cage was scored as 2.

Catalepsy assay = format: in vivo; settings: both sexes, Kunming (KM), mouse, in vivo; mice, po
Description: Healthy mice of Kunming breed (with half male and half female, (22±2)g) were provided by Qinglongshan Animal Cultivation Center, Nanjing.
Instruments: self-made bar-grabbing apparatus: stainless steel bar in mice box, which was 0.3 cm in diameter and […].
Corresponding solvent double-distilled water was administered intragastrically to the negative control group and the model group, corresponding positive drugs were administered intragastrically to the positive drug groups (a small amount of acetic acid was first added and then double-distilled water was added when dissolving), and corresponding dosages of compounds were administered intragastrically to the compound groups for each dosage, with the volume for intragastric administration as 0.1 ml/10 g. At 30 min, 60 min, 90 min after the intragastric administration, the two forepaws of the mice were gently placed on the bars (which were 20 cm in length, 0.3 cm in diameter, and 5.5 cm above the bench), and the hindpaws of the animals were placed on the bottom of the box. The durations for the mice to maintain the posture with the two forepaws on the bars were recorded, and 30 s of spasticity without moving was considered as the positive response. In the case the forepaws of the mice were not put down persistently, the observation was terminated at 60 s. The numbers of animals with positive response in each of the compound dosage groups were counted.

in vivo = settings: both, mouse, po
Description: KM mice (half male and half female) were randomly divided into several groups (with 2-5 mice in each group), which were respectively the 2000 mg/kg groups for each compound, and the solvent group. 0.2 ml/10 g were administered intragastrically. The death of the animals in 3 days were observed. (In the case 3 or more animals survived in 3 days without notable abnormity in their life states, the observation was continued until the assay was completed in 7 days. In the case 3 or more animals died in 3 days, the median lethal dose method was used to determine the LD50).
0.2 ml/10 g were administered intragastrically, and the death of the animals in 1-3 days were observed.

dopamine D2 receptor = dopamine D2 receptor (Rattus norvegicus, UniProt P61169); assay: D2 receptor binding assay (3H-Spiperone, rat brain striatum membrane); settings: for affinity for D2 receptor (in words): in vitro receptor binding assay; for inhibition at 10 µM: read-out: D2 inhibition %
[1] = in vitro receptor binding assay
[2] = test compound final concentration 10^−5 M, [3H]-mesulergine, rat brain striatum membrane

Chain of dopamine D2 receptor (P61169 whole entry): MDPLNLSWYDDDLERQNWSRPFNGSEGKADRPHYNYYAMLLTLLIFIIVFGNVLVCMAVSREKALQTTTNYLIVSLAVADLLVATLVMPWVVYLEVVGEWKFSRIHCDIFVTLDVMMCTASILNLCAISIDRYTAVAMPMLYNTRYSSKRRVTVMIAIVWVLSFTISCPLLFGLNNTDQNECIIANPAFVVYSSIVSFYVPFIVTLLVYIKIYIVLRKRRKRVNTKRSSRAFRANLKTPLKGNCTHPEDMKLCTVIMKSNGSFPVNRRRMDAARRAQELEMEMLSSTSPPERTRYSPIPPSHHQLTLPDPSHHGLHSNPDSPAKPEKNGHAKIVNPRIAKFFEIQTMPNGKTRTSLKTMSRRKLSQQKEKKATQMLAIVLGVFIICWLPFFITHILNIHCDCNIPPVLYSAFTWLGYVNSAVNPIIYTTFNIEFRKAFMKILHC
Chain of 5-HT2C receptor (P08909 33-460): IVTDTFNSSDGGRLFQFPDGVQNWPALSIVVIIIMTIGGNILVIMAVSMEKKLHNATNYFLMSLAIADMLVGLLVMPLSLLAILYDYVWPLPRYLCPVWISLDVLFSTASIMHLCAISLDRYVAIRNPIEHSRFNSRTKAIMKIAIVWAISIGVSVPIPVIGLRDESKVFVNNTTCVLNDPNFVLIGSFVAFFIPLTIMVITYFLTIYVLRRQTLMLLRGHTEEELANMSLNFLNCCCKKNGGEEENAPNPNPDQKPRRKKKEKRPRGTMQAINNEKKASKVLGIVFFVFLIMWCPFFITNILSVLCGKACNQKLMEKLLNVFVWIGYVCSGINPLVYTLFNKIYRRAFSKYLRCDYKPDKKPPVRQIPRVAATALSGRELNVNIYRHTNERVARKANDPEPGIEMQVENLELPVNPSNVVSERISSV
T2 sequence (P35462 whole entry): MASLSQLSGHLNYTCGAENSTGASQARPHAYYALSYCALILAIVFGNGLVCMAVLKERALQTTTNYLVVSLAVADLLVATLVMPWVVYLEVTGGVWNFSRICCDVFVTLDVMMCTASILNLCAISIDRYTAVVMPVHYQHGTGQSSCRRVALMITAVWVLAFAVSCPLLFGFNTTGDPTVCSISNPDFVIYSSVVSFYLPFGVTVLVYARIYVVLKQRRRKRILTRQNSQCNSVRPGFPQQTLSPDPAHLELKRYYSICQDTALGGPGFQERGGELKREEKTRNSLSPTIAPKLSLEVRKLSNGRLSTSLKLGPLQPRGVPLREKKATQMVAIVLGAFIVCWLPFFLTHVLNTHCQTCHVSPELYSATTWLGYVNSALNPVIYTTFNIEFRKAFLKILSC
Chain of 5-HT2A receptor (P14842 whole entry): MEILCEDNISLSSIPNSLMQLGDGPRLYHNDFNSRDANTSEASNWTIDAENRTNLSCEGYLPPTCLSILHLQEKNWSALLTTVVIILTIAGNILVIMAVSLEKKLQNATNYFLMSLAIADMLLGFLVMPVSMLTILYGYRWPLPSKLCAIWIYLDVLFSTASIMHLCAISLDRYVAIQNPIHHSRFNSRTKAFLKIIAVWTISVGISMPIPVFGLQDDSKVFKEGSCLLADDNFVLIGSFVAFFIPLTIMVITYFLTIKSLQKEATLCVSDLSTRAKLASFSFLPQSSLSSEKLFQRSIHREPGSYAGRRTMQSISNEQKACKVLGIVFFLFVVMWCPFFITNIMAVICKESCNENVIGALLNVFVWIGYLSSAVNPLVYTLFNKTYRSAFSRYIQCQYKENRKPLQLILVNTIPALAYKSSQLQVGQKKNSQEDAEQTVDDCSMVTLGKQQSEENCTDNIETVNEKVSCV

Structure (SMILES)	IC50 (5-HT1A receptor) [nM]	affinity for 5-HT1A receptor (in words) (5-HT1A receptor)	IC50 (5-HT2A receptor) [nM]	affinity for 5-HT2A receptor (in words) (5-HT2A receptor; [1])	inhibition at 10 µM (D3 receptor) [%]	affinity for D3 receptor (in words) (D3 receptor)	affinity for 5-HT2C receptor (in words) (5-HT2C receptor; [1])	inhibition at 10 µM (5-HT2C receptor) [%]	ED50 (mice of Kunming breed) [mg/kg]	ED50 (KM mice) [mg/kg]	ED50 (Catalepsy assay) [mg/kg]	LD50 (in vivo) [mg/kg]	affinity for D2 receptor (in words) (dopamine D2 receptor)	inhibition at 10 µM (dopamine D2 receptor) [%]	affinity for 5-HT2A receptor (in words) (5-HT2A receptor)	affinity for 5-HT2C receptor (in words) (5-HT2C receptor)	inhibition at 10 µM (5-HT2C receptor; [2]) [%]	melting point [°C]	improvement of MK-801 induced high activity (in words) (mice of Kunming breed; compared to the model group)	improvement of apomorphine induced clambering symptoms (in words) (KM mice)
Cc1cc(=O)oc2cc(OCCCCN3CCC(c4noc5cc(F)ccc45)CC3)ccc12 [Compound 6, 7-(4-(4-(3-(6-fluoro-benzisoxazole)-1-piperidyl)-n-butoxy))-4-methyl-2H-benzopyran-2-one]	3.52	relatively stronger affinities	0.39	relatively stronger affinities	100	relatively stronger affinities	lower affinities	91.4	0.32	0.11	0.68	> 2000	relatively stronger affinities	101	–	–	–	–	–	–
Cc1cc(=O)oc2c(Cl)c(OCCCN3CCN(c4nsc5ccccc45)CC3)ccc12 [Compound 22, 7-(3-(4-(3-(1,2-benzisothiazole)-1-piperazinyl)-n-propoxy))-4-methyl-8-chloro-2H-benzopyran-2-one]	12.8	relatively stronger affinities	6.88	–	104	relatively stronger affinities	–	–	–	–	–	–	relatively stronger affinities	112	relatively stronger affinities	lower affinities	99.8	162 to 164	–	–
Cc1cc(=O)oc2cc(OCCCN3CCC(c4noc5cc(F)ccc45)CC3)ccc12 [Compound 7, 7-(3-(4-(3-(6-fluoro-benzisoxazole)-1-piperidyl)-n-propoxy))-4-methyl-2H-benzopyran-2-one]	5.95	relatively stronger affinities	0.69	relatively stronger affinities	101	relatively stronger affinities	lower affinities	82	0.27	0.15	1.5	1000 to 2000	relatively stronger affinities	103	–	–	–	–	–	–
Cc1nc2n(c(=O)c1CCN1CCC(c3noc4cc(F)ccc34)CC1)CCCC2 [risperidone, reference compound]	–	–	–	–	–	–	–	–	–	0.015	–	82.1	–	–	–	–	–	–	significantly improve	effectively improve
O=c1cc(C(F)(F)F)c2ccc(OCCCCN3CCN(c4nsc5ccccc45)CC3)cc2o1 [Compound 18, 7-(4-(4-(3-(1,2-benzisothiazole)-1-piperazinyl)-n-butoxy))-4-(trifluoromethyl)-2H-benzopyran-2-one]	6.19	relatively stronger affinities	0.79	–	103	relatively stronger affinities	–	–	–	–	–	–	relatively stronger affinities	113	relatively stronger affinities	lower affinities	77.6	93 to 95	–	–
O=c1ccc2ccc(OCCCCN3CCC(c4noc5cc(F)ccc45)CC3)cc2o1 [Compound 1, 7-(4-(4-(3-(6-fluoro-benzisoxazole)-1-piperidyl)-n-butoxy))-2H-benzopyran-2-one]	9.61	relatively stronger affinities	1.53	relatively stronger affinities	97.6	relatively stronger affinities	lower affinities	88	0.61	0.32	1.41	> 2000	relatively stronger affinities	128	–	–	–	–	–	–
Cc1cc2c(s1)Nc1ccccc1N=C2N1CCN(C)CC1 [olanzapine, reference compound]	–	–	–	–	–	–	–	–	–	0.11	–	–	–	–	–	–	–	–	–	–
O=c1cc(-c2ccccc2)c2ccc(OCCCN3CCN(c4nsc5ccccc45)CC3)cc2o1 [Compound 12, 7-(3-(4-(3-(1,2-benzisothiazole)-1-piperazinyl)-n-propoxy))-4-phenyl-2H-benzopyran-2-one]	127	relatively stronger affinities	9.26	–	103	relatively stronger affinities	–	–	–	–	–	–	relatively stronger affinities	124	relatively stronger affinities	lower affinities	93.4	–	–	–
